These results are taken from ChEMBL document CHEMBL4627248, “Emerging small-molecule therapeutic approaches for amyotrophic lateral sclerosis and frontotemporal dementia” (Bioorg Med Chem Lett, 2020).

The IC50 is the point on the concentration scale where inhibition reaches its midpoint. Higher therefore signals weaker potency. Broadly, the Kd is the concentration at which binding is half-saturated. A high value points to lower affinity.

The target of the first experiment is T1, TAR DNA-binding protein 43 (Homo sapiens, UniProt Q13148). Put plainly: Inhibition of TDP-43 (unknown origin) binding to RNA.
T1 sequence (Q13148 whole entry): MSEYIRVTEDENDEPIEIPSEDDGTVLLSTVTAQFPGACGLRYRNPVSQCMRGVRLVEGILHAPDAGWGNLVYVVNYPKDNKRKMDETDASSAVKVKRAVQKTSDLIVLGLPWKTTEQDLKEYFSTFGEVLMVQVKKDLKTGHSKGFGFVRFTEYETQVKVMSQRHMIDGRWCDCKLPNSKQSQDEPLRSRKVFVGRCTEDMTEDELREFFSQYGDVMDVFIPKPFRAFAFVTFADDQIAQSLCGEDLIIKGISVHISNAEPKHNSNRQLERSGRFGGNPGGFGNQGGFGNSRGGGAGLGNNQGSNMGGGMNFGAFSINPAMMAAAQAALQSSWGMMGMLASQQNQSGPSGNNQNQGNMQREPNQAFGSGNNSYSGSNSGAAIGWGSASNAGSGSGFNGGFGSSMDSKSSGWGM
For the compound `O=C1c2c(O)ccc(O)c2C(=O)c2c(NCCNCCO)ccc(NCCNCCO)c21` [MITOXANTRONE], the IC50 was 10 µM. On the same count and under the same terms, as for `NC(=O)CCCCC1CCSS1` (racemic) [THIOCTIC ACID AMIDE], the figure is 20 µM; as for `O=C(O)CCCC[C@@H]1CCSS1` [THIOCTIC ACID], 20 µM. Turning to `CCc1cccc(C)c1NS(=O)(=O)c1cnccc1C(=O)N1CCCC1`, the half-inhibitory concentration (IC50) is greater than 0.1 µM. Take `COc1cc(NC(=O)CCC2CCCN(Cc3ccc(F)c(OC)c3)C2)cc(OC)c1` (stereo not given): the IC50 is 0.1 µM.

The next experiment concerns the target T1, TAR DNA-binding protein 43. Nature of the experiment: Binding affinity to TDP-43 (unknown origin).
For the compound `NC(=O)c1cncc(N2CCCC(CO)(Cc3ccc(F)cc3)C2)n1` (stereo not given), binding was characterised by a dissociation constant (Kd) of 89 µM.

The target in another experiment is (G4C2)8 hairpin RNA. Nature of the experiment: Binding affinity to (G4C2)8 hairpin RNA (unknown origin) by TO-PRO-1 dye displacement assay.
In turn, `CCN(CC)CC[n+]1ccc2c(C)c3[nH]c4ccc(O)cc4c3c(C)c2c1` displayed an equilibrium dissociation constant (Kd) of 1.4 µM. Still for that read-out and setting: as for `Cc1c2cc[n+](C)cc2c(C)c2c1[nH]c1ccc(O)cc12`, the figure is 0.9 µM.

The compound `CCN(CC)CCNC(=O)c1cc2cc(NC(=O)c3cc4cc(N)ccc4[nH]3)ccc2[nH]1` had a Kd of 16 µM.

In turn, `N=C(N)c1ccc(Nc2ccc(-c3cc4ccc(C(=N)N)cc4[nH]3)cc2)cc1` returned a Kd of 10 µM.
